Assay results from patent publication EP0572122A2, “C-terminal modified osteogenic growth polypeptides” (YISSUM RESEARCH AND DEVELOPMENT COMPANY OF THE HEBREW …, priority 1992, dated 1993).

Test system: anti-OGP IgG
Experiment: ELISA reactivity of peptides with the anti-OGP IgG preparation
Assay type: binding, rabbits
Details: polyclonal rabbit anti-OGP IgG fraction
Description: The wells were washed with 200 µl PBS (x3). Blocking of unreacted sites on the plastic well bottom was carried out by incubation of 1% gelatine in PBS at 37°C for 1 h. Rinsing with PBS (3 x 200 µl) was followed by 2 h incubation with the anti-OGP IgG preparation (diluted 1:300 with reference to the original rabbit anti-serum) at room temperature. This was followed by rinsing with (i) 3% BSA in PBS (1 x 200 µl); (ii) 0.02% Tween 20 in PBS (1 x 200 µl); and (iii) PBS (3 x 200 µl). The wells were then incubated with 100 µl of 1:1000 dilution in PBS of goat alkaline phosphatase conjugated anti-rabbit IgG for 2 h at room temperature. Rinsing with (i) 0.02% Tween in PBS (1 x 200 µl); (ii) PBS (2 x 200 µl); (iii) bidistilled water (3 x 200 µl) preceded a 20 min incubation at room temperature with alkaline phosphatase buffer solution: p-nitrophenyl phosphate 1 mg/ml in substrate buffer (diethanolamine buffer pH 9.6). Light absorbance at 450 nm was then recorded using an ELISA reader.

binding to / reaction with anti-OGP IgG in ELISA: failed to react
Substance: parathyroid hormone (PTH) (1-34) [PTH (1-34)]
